Experiments:
[1] = 101 kPa, Liquid; for electrical conductivity: Crison GLP 31+ conductivimeter
[2] = xn = mol fraction of the nth substance listed; conditions: 101 kPa, Liquid; for electrical conductivity: Crison GLP 31+ conductivimeter

CCCCCCn1cc[n+](C)c1.F[B-](F)(F)F [1-hexyl-3-methylimidazolium tetrafluoroborate]
[1]
Conditions	electrical conductivity [S/m]	viscosity [mPa·s]
288.15 K	–	357.5
298.15 K	0.126	190.9
308.15 K	–	110.3
318.15 K	–	68.5

CCO [ethanol] + CCCCCCCC[n+]1ccn(C)c1.F[B-](F)(F)F
Conditions	electrical conductivity [S/m]
[2], 298.15 K, x1 = 1	3e-05

CCn1cc[n+](C)c1.F[B-](F)(F)F [1-ethyl-3-methylimidazolium tetrafluoroborate] + CCO
[2]
Conditions	electrical conductivity [S/m]	viscosity [mPa·s]
288.15 K, x2 = 0	–	55.5
288.15 K, x2 = 0.0946	–	34.76
288.15 K, x2 = 0.1928	–	25.25
288.15 K, x2 = 0.2757	–	20.25
288.15 K, x2 = 0.3116	–	18.17
288.15 K, x2 = 0.3913	–	13.68
288.15 K, x2 = 0.4553	–	12.47
298.15 K, x2 = 0	1.63	36.9
298.15 K, x2 = 0.028	1.718	–
298.15 K, x2 = 0.057	1.843	–
298.15 K, x2 = 0.0719	1.911	–
298.15 K, x2 = 0.0946	–	24.46
298.15 K, x2 = 0.1034	2.061	–
298.15 K, x2 = 0.1624	2.287	–
298.15 K, x2 = 0.1928	–	18.33
298.15 K, x2 = 0.242	2.647	–
298.15 K, x2 = 0.2757	–	14.92
298.15 K, x2 = 0.3116	–	13.47
298.15 K, x2 = 0.3165	2.982	–
298.15 K, x2 = 0.3892	3.228	–
298.15 K, x2 = 0.3913	–	10.3
298.15 K, x2 = 0.4085	3.278	–
298.15 K, x2 = 0.4322	3.26	–
298.15 K, x2 = 0.4511	3.47	–
298.15 K, x2 = 0.4553	–	8.445
298.15 K, x2 = 0.4613	3.561	–
308.15 K, x2 = 0	–	26
308.15 K, x2 = 0.0946	–	18.04
308.15 K, x2 = 0.1928	–	13.88
308.15 K, x2 = 0.2757	–	11.39
308.15 K, x2 = 0.3116	–	10.38
308.15 K, x2 = 0.3913	–	8.074
308.15 K, x2 = 0.4553	–	6.668
318.15 K, x2 = 0	–	19.17
318.15 K, x2 = 0.0946	–	13.79
318.15 K, x2 = 0.1928	–	10.84
318.15 K, x2 = 0.2757	–	8.958
318.15 K, x2 = 0.3116	–	8.238
318.15 K, x2 = 0.3913	–	6.494
318.15 K, x2 = 0.4553	–	5.408

CCO [ethanol]
[1]
Conditions	electrical conductivity [S/m]	viscosity [mPa·s]
288.15 K	–	1.296
298.15 K	3e-05	1.091
308.15 K	–	0.9153
318.15 K	–	0.7738

CCO [ethanol] + CCn1cc[n+](C)c1.F[B-](F)(F)F
[2], x1 = 1
Conditions	viscosity [mPa·s]
288.15 K	1.296
298.15 K	1.091
308.15 K	0.9153
318.15 K	0.7738

CCCCn1cc[n+](C)c1.F[B-](F)(F)F [1-butyl-3-methylimidazolium tetrafluoroborate]
[1]
Conditions	electrical conductivity [S/m]	viscosity [mPa·s]
288.15 K	–	173.5
298.15 K	0.352	99.2
308.15 K	–	61.3
318.15 K	–	40.4

CCCCCCCC[n+]1ccn(C)c1.F[B-](F)(F)F [1-methyl-3-octylimidazolium tetrafluoroborate]
[1]
Conditions	electrical conductivity [S/m]	viscosity [mPa·s]
288.15 K	–	686
298.15 K	0.069	337.4
308.15 K	–	187.7
318.15 K	–	112.1

CCn1cc[n+](C)c1.F[B-](F)(F)F [1-ethyl-3-methylimidazolium tetrafluoroborate]
[1]
Conditions	electrical conductivity [S/m]	viscosity [mPa·s]
288.15 K	–	55.5
298.15 K	1.63	36.9
308.15 K	–	26
318.15 K	–	19.17
